Results as given in patent EP0670721B1, “DRUG FOR TREATMENT AND PROPHYLAXIS OF BONE AND JOINT DISEASES” (Fricker, Christian, priority 1993, dated 1995).

Assay: Oral treatment of bone and joint diseases with raised internal pressure (own controlled trials)
Format: in vivo, Menschen, Hund, Pferd
Details: osteoarthrosis (human and veterinary), podotrochlosis of the horse
From the text: Erfindungsgemäß konnte festgestellt werden, daß bei degenerativen Gelenkserkrankungen in den Epiphysen bei am Gelenk beteiligten Knochen ein pathologisch erhöhter Innendruck vorliegt. Analog zur Pathophysiologie des Kompartmentsyndroms wird der intraossäre Druckanstieg durch eine Anreicherung von osmotisch aktiven Substanzen in Intestitium verursacht. In Anlehnung an die vorgestellte Pathophysiologie kann somit erstmals eine kausale Therapie für degenerative Gelenkserkrankungen bereitgestellt werden. Benzopyrone und Dobesilat-calcium vermögen durch Stabilisierung der Kapillarwände einerseits und durch Proteinresorption andererseits den Druck im erkrankten Kompartment abzubauen. Der Druckabbau ermöglicht in der Folge eine Normalisierung der Mikrozirkulation und somit eine Gesundung der betroffenen Gewebe. Wie eigene, kontrollierte Versuche zeigen, eignen sich Benzopyrone wie auch Dobesilat-Calcium zur kausalen Therapie dieser auf innerem Überdruck in Knochen und Gelenken beruhenden Erkrankungen. Dies trifft insbesondere in der Human- und Veterinärmedizin für den Problemkreis der Osteoarthrose und in der Veterinärmedizin für die Podotrochlose des Pferdes zu.
Das 5,6-α-Benzopyron wurde in der Tagesdosis von: • 1 - 4 mg/kg KGW beim Menschen, • 2 - 4 mg/kg KGW beim Hund und • 0,5 - 1 mg/kg KGW beim Pferd peroral verabreicht. […]

**Q.** Which “Eignung zur kausalen Therapie der auf innerem Überdruck in Knochen und Gelenken beruhenden Erkrankungen” value does the source give for O=S(=O)(O)c1cc(O)ccc1O [Dobesilat-Calcium] here?
**A.** The value was “eignen sich”.
